Laboratory results: patent publication US7442541B2, “β-glucan-containing fat and oil composition and novel microorganism capable of producing β-glucan” (Adeka Corporation, priority 2002, dated 2008)

How the values were obtained:
Assay in all cases: Cycloheximide resistance test
Assay type in all cases: cell-based
[1] = test system: ADK-8; conditions: strain ADK-8, YM agar, 26° C., 10 days
Experimental: (§1) The strains obtained by the screening in Test Examples 1 and 2 and IFO-4466, IFO-6353, and IFO-7757 purchased from Institute for Fermentation, Osaka, i.e., were tested for cycloheximide resistance as follows. Each strain was grown on YM agar medium (Difco) at 26° C. for 5 days. YM agar media (Difco) containing 5, 10, 20, 40, and 80 μg/ml of cycloheximide were prepared. The grown strain was inoculated into each of the cycloheximide-containing media using a sterile toothpick and incubated at 26° C. for 10 days. The plates were examined for colonies. The diameters of the colonies, if formed, were measured.

[2] = test system: ADK-5; conditions: strain ADK-5, YM agar, 26° C., 10 days
Experimental: as §1

[3] = test system: ADK-6; conditions: strain ADK-6, YM agar, 26° C., 10 days
Experimental: as §1

[4] = test system: ADK-27; conditions: strain ADK-27, YM agar, 26° C., 10 days
Experimental: as §1

`C[C@@H]1C[C@@H]([C@H](O)CC2CC(=O)NC(=O)C2)C(=O)[C@@H](C)C1` [Cycloheximide, cycloheximide] showed a Colony diameter ([1]; cycloheximide 5 μg/ml) of 7.7 mm, a Colony diameter ([1]; cycloheximide 10 μg/ml) of 1.1 mm and a Colony diameter ([1]; cycloheximide 20 μg/ml) of 0 mm. It also gave a Colony diameter ([1]; cycloheximide 40 μg/ml) of 0 mm, a Colony diameter ([1]; cycloheximide 80 μg/ml) of 0 mm and a Colony diameter ([2]; cycloheximide 5 μg/ml) of 6.3 mm. It also gave a Colony diameter ([2]; cycloheximide 10 μg/ml) of 0 mm, a Colony diameter ([2]; cycloheximide 20 μg/ml) of 0 mm and a Colony diameter ([2]; cycloheximide 40 μg/ml) of 0 mm. For the same molecule, the Colony diameter ([2]; cycloheximide 80 μg/ml) was 0 mm, the Colony diameter ([3]; cycloheximide 5 μg/ml) was 7.1 mm and the Colony diameter ([3]; cycloheximide 10 μg/ml) was 0 mm. For the same molecule, the Colony diameter ([3]; cycloheximide 20 μg/ml) was 0 mm, the Colony diameter ([3]; cycloheximide 40 μg/ml) was 0 mm and the Colony diameter ([3]; cycloheximide 80 μg/ml) was 0 mm. The Colony diameter ([4]; cycloheximide 5 μg/ml) was 10.3 mm, the Colony diameter ([4]; cycloheximide 10 μg/ml) was 0 mm and the Colony diameter ([4]; cycloheximide 20 μg/ml) was 0 mm. The Colony diameter ([4]; cycloheximide 40 μg/ml) was 0 mm and the Colony diameter ([4]; cycloheximide 80 μg/ml) was 0 mm.
